US20240239790A1, “7-Morpholino-1,6-Naphthyridin-5-yl Derivatives and Pharmaceutical Compositions Thereof Useful as DNA-PK Inhibitor” (adMare Therapeutics Society, priority 2021, published 2024)
Where two headings read alike, the source gives them in different places.

How the values were obtained:
[1] = target: T1, DNA-PK (Homo sapiens, UniProt P78527); assay: DNA-PK Assay for Biochemical Enzymatic Inhibition (ADP Glo Kinase assay); conditions: DNA-PK enzyme, Table 1
T1 construct: purchased Invitrogen PR9107A
How it was run: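 Human DNA-PK (25 ng) preincubated 15 min with compounds (ten three-fold dilutions) in HEPES pH 7.5, MgCl2, KCl, calf thymus DNA buffer, then substrate 434.4 μM and ATP 64.4 μM (final) for 60 min at room temperature. ADP-Glo luminescence; percent inhibition fitted by four-parameter regression for IC50.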

[2] = tested on: pDNA-PK induction in HCT116 tumour spheroids; assay: Multicellular tumour spheroid + radiation, pDNA-PK (ser2056) inhibition, immunohistochemical endpoint, HCT116; format: cell-based; conditions: Homo sapiens, HCT-116, 20 Gy, 2 hours following radiation, 20% O2
How it was run: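 HCT116 spheroids (~0.5 mm) in MEM/10% FBS, 20% O2, 37° C., pre-incubated 1 h with compound (10 or 5 μM down to 3.5 nM), irradiated 20 Gy, then 2 h further with compound. Cryosections immunostained for pDNA-PK ser2056; EC50 is concentration halving radiation-induced pDNA-PK.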

[3] = Hepatocyte Stability Assay, mouse hepatocytes; format: in vitro ADME; conditions: for hepatocyte CLint at 1 uM: male, CD-1, cryopreserved hepatocytes, pH 7.3, mouse hepatocytes 0.7 million cells per mL, 1 uM compound; for Hepatocyte Stability Mouse % rem. 120 min: mouse hepatocytes
Description: (§1) Cryopreserved mouse hepatocytes were obtained from a pool of 10 or more male CD-1 mice. Cryopreserved human hepatocytes were obtained from a pool of 10 or more donors of mixed gender. Final hepatocyte density was 0.7 million viable cells per mL and test compound concentration was 1 uM with a maximum of 0.01% DMSO. Cryopreserved hepatocytes were thawed, washed, and resuspended in Krebs-Heinslet buffer (pH 7.3). The reaction was initiated by adding the test compound into cell suspension and incubated for 0, […], 1, 1.5, and 2 h, respectively, at 37° C./5% C02. The reaction was stopped by adding acetonitrile into the incubation mixture. Samples were then mixed, transferred completely to another 96-well plate, and centrifuged. Supernatants were used for HPLC-MS/MS analysis. […] Peak areas corresponding to the test compound were recorded.

[4] = Hepatocyte Stability Assay, human hepatocytes; format: in vitro ADME; conditions: for hepatocyte CLint at 1 uM: both sexes, cryopreserved hepatocytes, pH 7.3, human hepatocytes 0.7 million cells per mL, 1 uM compound; for Hepatocyte Stability Human % rem. 120 min: human hepatocytes
Description: as §1

[5] = Example 9 Study 2, read-out: Spheroid Cell line: HCT116 Immunohistochemical endpoint pDNA-PK inhibition EC50
[6] = Spheroid, Cell Line: HCT115 (so in the source), Example 7, read-out: EC50, Immunohistochemical endpoint, pDNA-PK inhibition

IC50 [1] | EC50 [2, 5] | EC50 [2, 6] | hepatocyte CLint at 1 uM [3] | Hepatocyte Stability Mouse % rem. 120 min [3] | hepatocyte CLint at 1 uM [4] | Hepatocyte Stability Human % rem. 120 min [4] | Compound
< 0.5 nM | 1000 to 10000 nM | 1000 to 10000 nM | < 8.2 µL/min/1e6 cells | G (% remaining = 50-75%) | < 8.2 µL/min/1e6 cells | F (% remaining = 25-50%) | NCCOc1cnc(N[C@H]2CC[C@@H](Oc3nc(N4CCOCC4)cc4ncccc34)CC2)nc1 [Compound 65, 5-(2-Aminoethoxy)-N-((1s,4s)-4-((7-morpholino-1,6-naphthyridin-5-yl)oxy)cyclohexyl)pyrimidin-2-amine]
0.5 to 1 nM | 1000 to 10000 nM | 1000 to 10000 nM | < 8.2 µL/min/1e6 cells | F (% remaining = 25-50%) | < 8.2 µL/min/1e6 cells | G (% remaining = 50-75%) | CC(=O)NCCOc1cnc(N[C@H]2CC[C@@H](Oc3nc(N4CCOCC4)cc4ncccc34)CC2)nc1 [Compound 66]
< 0.5 nM | 500 to 1000 nM | 500 to 1000 nM | < 8.2 µL/min/1e6 cells | G (% remaining = 50-75%) | > 8.2 µL/min/1e6 cells | F (% remaining = 25-50%) | c1cnc2cc(N3CCOCC3)nc(O[C@H]3CC[C@@H](Nc4ncc(OCCN5CCOCC5)cn4)CC3)c2c1 [Compound 68, N-((1s,4s)-4-((7-Morpholino-1,6-naphthyridin-5-yl)oxy)cyclohexyl)-5-(2-morpholinoethoxy)pyrimidin-2-amine]
< 0.5 nM | 1000 to 10000 nM | 1000 to 10000 nM | < 8.2 µL/min/1e6 cells | H (% remaining = 75-100%) | < 8.2 µL/min/1e6 cells | G (% remaining = 50-75%) | CN1CCN(CCOc2cnc(N[C@H]3CC[C@@H](Oc4nc(N5CCOCC5)cc5ncccc45)CC3)nc2)CC1 [Compound 69, 5-(2-(4-Methylpiperazin-1-yl)ethoxy)-N-((1s,4s)-4-((7-morpholino-1,6-naphthyridin-5-yl)oxy)cyclohexyl)pyrimidin-2-amine]
< 0.5 nM | 10 to 500 nM | 10 to 500 nM | < 8.2 µL/min/1e6 cells | G (% remaining = 50-75%) | < 8.2 µL/min/1e6 cells | G (% remaining = 50-75%) | CNC(=O)COc1cnc(N[C@H]2CC[C@@H](Oc3nc(N4CCOCC4)cc4ncccc34)CC2)nc1 [Compound 71, N-Methyl-2-((2-(((1s,4s)-4-((7-morpholino-1,6-naphthyridin-5-yl)oxy)cyclohexyl)amino)pyrimidin-5-yl)oxy)acetamide]
< 0.5 nM | 500 to 1000 nM | 500 to 1000 nM | < 8.2 µL/min/1e6 cells | G (% remaining = 50-75%) | < 8.2 µL/min/1e6 cells | H (% remaining = 75-100%) | O=C(COc1cnc(N[C@H]2CC[C@@H](Oc3nc(N4CCOCC4)cc4ncccc34)CC2)nc1)N1CCC1 [Compound 75, 1-(Azetidin-1-yl)-2-((2-(((1s,4s)-4-((7-morpholino-1,6-naphthyridin-5-yl)oxy)cyclohexyl)amino)pyrimidin-5-yl)oxy)ethan-1-one]
< 0.5 nM | 10 to 500 nM | 10 to 500 nM | < 8.2 µL/min/1e6 cells | H (% remaining = 75-100%) | < 8.2 µL/min/1e6 cells | H (% remaining = 75-100%) | CN(C)C(=O)Cn1ccc2nc(N[C@H]3CC[C@@H](Oc4nc(N5CCOCC5)cc5ncccc45)CC3)ncc21 [Compound 86, N,N-Dimethyl-2-(2-(((1s,4s)-4-((7-morpholino-1,6-naphthyridin-5-yl)oxy)cyclohexyl)amino)-5H-pyrrolo[3,2-d]pyrimidin-5-yl)acetamide]
